Measured values published in patent US20100267561A1, “HERBICIDAL PYRIDAZINONE DERIVATIVES” (priority 2007, published 2010).

Assays:
Type in all cases: in vivo
canola (Brassica rapa) = test: Test C pre-/postemergence plant response
Outline: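 Test chemicals in a non-phytotoxic solvent with surfactant were applied preemergence, and some were also applied postemergence to plants 2–18 cm tall (1- to 4-leaf stage). Visual ratings against controls were made after 15–25 days in a controlled environment, on a 0–100 scale where 100 means complete control.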

[1] = tested on: goosegrass (Eleusine indica); test: Test E pre-/postemergence plant response; conditions: scale 0 to 100
Outline: (§1)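 Pre- and postemergence greenhouse test; compounds formulated in non-phytotoxic solvent with surfactant, postemergence plants 2–18 cm (1- to 4-leaf stage). Visual rating against untreated controls after 14 to 21 days, on a 0 (no effect) to 100 (complete control) scale.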

[2] = tested on: southern (S.) sandbur (Cenchrus echinatus); test: Test E pre-/postemergence plant response; conditions: scale 0 to 100
Outline: as §1

[3] = tested on: dallisgrass (Paspalum dilatatum); test: Test E pre-/postemergence plant response; conditions: scale 0 to 100
Outline: as §1

[4] = tested on: barnyardgrass (Echinochloa crus-galli); test: Test E pre-/postemergence plant response
Outline: as §1

[5] = tested on: black mustard (Brassica nigra); test: Test E pre-/postemergence plant response; conditions: scale 0 to 100
Outline: as §1

[6] = tested on: common groundsel (Senecio vulgaris); test: Test E pre-/postemergence plant response; conditions: scale 0 to 100
Outline: as §1

[7] = tested on: guineagrass (Panicum maximum); test: Test E pre-/postemergence plant response; conditions: scale 0 to 100
Outline: as §1

[8] = tested on: common purslane (Portulaca oleracea); test: Test E pre-/postemergence plant response; conditions: scale 0 to 100
Outline: as §1

[9] = Preemergence, 8 g ai/ha, scale 0 to 100 (0 no effect, 100 complete control)
[10] = Preemergence, 16 g ai/ha, scale 0 to 100 (0 no effect, 100 complete control)
[11] = Preemergence, 31 g ai/ha, scale 0 to 100 (0 no effect, 100 complete control)
[12] = Preemergence, 62 g ai/ha, scale 0 to 100, 0 no effect, 100 complete control
[13] = 8 g ai/ha, Preemergence, scale 0 to 100
[14] = 16 g ai/ha, Preemergence, scale 0 to 100
[15] = 31 g ai/ha, Preemergence, scale 0 to 100
[16] = Postemergence, 8 g ai/ha, scale 0 to 100
[17] = Postemergence, 16 g ai/ha, scale 0 to 100
[18] = Postemergence, 31 g ai/ha, scale 0 to 100

Compound: CCc1cc(-c2ccc(C(F)(F)F)cc2)nn1-c1c(OS(C)(=O)=O)cnn(C)c1=O [Compound 19]
- Plant response rating, Canola (canola (Brassica rapa); Postemergence, 8 g ai/ha, scale 0 to 100, 0 no effect, 100 complete control): 0
- Plant response rating, Canola (canola (Brassica rapa); Postemergence, 16 g ai/ha, scale 0 to 100, 0 no effect, 100 complete control): 0
- Plant response rating, Canola (canola (Brassica rapa); Postemergence, 31 g ai/ha, scale 0 to 100, 0 no effect, 100 complete control): 0
- Plant response rating, Canola (canola (Brassica rapa); Postemergence, 62 g ai/ha, scale 0 to 100, 0 no effect, 100 complete control): 0
- Plant response rating, Canola (canola (Brassica rapa); [9]): 0
- Plant response rating, Canola (canola (Brassica rapa); [10]): 0
- Plant response rating, Canola (canola (Brassica rapa); [11]): 0
- Plant response rating, Canola (canola (Brassica rapa); [12]): 0
- Plant response rating, Goosegrass ([1]; 4 g ai/ha, Postemergence): 0
- Plant response rating, Goosegrass ([1]; 8 g ai/ha, Preemergence): 40
- Plant response rating, Goosegrass ([1]; 16 g ai/ha, Preemergence): 70
- Plant response rating, Goosegrass ([1]; 31 g ai/ha, Preemergence): 90
- Plant response rating, Goosegrass ([1]; Postemergence, 8 g ai/ha): 25
- Plant response rating, Goosegrass ([1]; Postemergence, 16 g ai/ha): 60
- Plant response rating, Goosegrass ([1]; Postemergence, 31 g ai/ha): 75
- Plant response rating, Goosegrass ([1]; Preemergence, 4 g ai/ha): 15
- Plant response rating, Sandbur, S. ([2]; 4 g ai/ha, Postemergence): 90
- Plant response rating, Sandbur, S. ([2]; 16 g ai/ha, Preemergence): 80
- Plant response rating, Sandbur, S. ([2]; 31 g ai/ha, Preemergence): 95
- Plant response rating, Sandbur, S. ([2]; Postemergence, 8 g ai/ha): 98
- Plant response rating, Sandbur, S. ([2]; Postemergence, 16 g ai/ha): 98
- Plant response rating, Sandbur, S. ([2]; Postemergence, 31 g ai/ha): 100
- Plant response rating, Sandbur, S. ([2]; Preemergence, 4 g ai/ha): 0
- Plant response rating, Dallisgrass ([3]; 4 g ai/ha, Postemergence): 0
- Plant response rating, Dallisgrass ([3]; 8 g ai/ha, Preemergence): 40
- Plant response rating, Dallisgrass ([3]; 16 g ai/ha, Preemergence): 90
- Plant response rating, Dallisgrass ([3]; 31 g ai/ha, Preemergence): 95
- Plant response rating, Dallisgrass ([3]; Postemergence, 8 g ai/ha): 30
- Plant response rating, Dallisgrass ([3]; Postemergence, 16 g ai/ha): 60
- Plant response rating, Dallisgrass ([3]; Postemergence, 31 g ai/ha): 75
- Plant response rating, Dallisgrass ([3]; Preemergence, 4 g ai/ha): 20
- Plant response rating, Barnyardgrass ([4]; 4 g ai/ha, Postemergence, scale 0 to 100): 90
- Plant response rating, Barnyardgrass [4, 13]: 75
- Plant response rating, Barnyardgrass [4, 14]: 95
- Plant response rating, Barnyardgrass [4, 15]: 100
- Plant response rating, Barnyardgrass [4, 16]: 98
- Plant response rating, Barnyardgrass [4, 17]: 100
- Plant response rating, Barnyardgrass [4, 18]: 100
- Plant response rating, Barnyardgrass ([4]; Preemergence, 4 g ai/ha, scale 0 to 100, 0 no effect, 100 complete control): 0
- Plant response rating, Mustard, Black ([5]; 4 g ai/ha, Postemergence): 0
- Plant response rating, Mustard, Black ([5]; 8 g ai/ha, Preemergence): 0
- Plant response rating, Mustard, Black ([5]; 16 g ai/ha, Preemergence): 0
- Plant response rating, Mustard, Black ([5]; 31 g ai/ha, Preemergence): 0
- Plant response rating, Mustard, Black ([5]; Postemergence, 8 g ai/ha): 0
- Plant response rating, Mustard, Black ([5]; Postemergence, 16 g ai/ha): 0
- Plant response rating, Mustard, Black ([5]; Postemergence, 31 g ai/ha): 0
- Plant response rating, Mustard, Black ([5]; Preemergence, 4 g ai/ha): 0
- Plant response rating, Groundsel ([6]; 4 g ai/ha, Postemergence): 0
- Plant response rating, Groundsel ([6]; 16 g ai/ha, Preemergence): 0
- Plant response rating, Groundsel ([6]; 31 g ai/ha, Preemergence): 0
- Plant response rating, Groundsel ([6]; Postemergence, 8 g ai/ha): 0
- Plant response rating, Groundsel ([6]; Postemergence, 16 g ai/ha): 0
- Plant response rating, Groundsel ([6]; Postemergence, 31 g ai/ha): 0
- Plant response rating, Groundsel ([6]; Preemergence, 4 g ai/ha): 0
- Plant response rating, Guineagrass ([7]; 4 g ai/ha, Postemergence): 80
- Plant response rating, Guineagrass ([7]; 16 g ai/ha, Preemergence): 100
- Plant response rating, Guineagrass ([7]; 31 g ai/ha, Preemergence): 100
- Plant response rating, Guineagrass ([7]; Postemergence, 8 g ai/ha): 90
- Plant response rating, Guineagrass ([7]; Postemergence, 16 g ai/ha): 95
- Plant response rating, Guineagrass ([7]; Postemergence, 31 g ai/ha): 98
- Plant response rating, Guineagrass ([7]; Preemergence, 4 g ai/ha): 60
- Plant response rating, Purslane ([8]; 4 g ai/ha, Postemergence): 0
- Plant response rating, Purslane ([8]; 16 g ai/ha, Preemergence): 0
- Plant response rating, Purslane ([8]; 31 g ai/ha, Preemergence): 0
- Plant response rating, Purslane ([8]; Postemergence, 8 g ai/ha): 0
- Plant response rating, Purslane ([8]; Postemergence, 16 g ai/ha): 0
- Plant response rating, Purslane ([8]; Postemergence, 31 g ai/ha): 0
- Plant response rating, Purslane ([8]; Preemergence, 4 g ai/ha): 0

Compound: COC(=O)Oc1cnn(C)c(=O)c1-n1nc(-c2ccc(Cl)cc2)cc1C [Compound 33]
- Plant response rating, Canola (canola (Brassica rapa); [9]): 0
- Plant response rating, Canola (canola (Brassica rapa); [10]): 0
- Plant response rating, Canola (canola (Brassica rapa); [11]): 0
- Plant response rating, Canola (canola (Brassica rapa); [12]): 0
- Plant response rating, Goosegrass ([1]; 8 g ai/ha, Preemergence): 75
- Plant response rating, Goosegrass ([1]; 16 g ai/ha, Preemergence): 98
- Plant response rating, Goosegrass ([1]; 31 g ai/ha, Preemergence): 98
- Plant response rating, Goosegrass ([1]; 62 g ai/ha, Preemergence): 100
- Plant response rating, Goosegrass ([1]; Postemergence, 8 g ai/ha): 35
- Plant response rating, Goosegrass ([1]; Postemergence, 16 g ai/ha): 35
- Plant response rating, Goosegrass ([1]; Postemergence, 31 g ai/ha): 75
- Plant response rating, Goosegrass ([1]; Postemergence, 62 g ai/ha): 75
- Plant response rating, Sandbur, S. ([2]; 16 g ai/ha, Preemergence): 90
- Plant response rating, Sandbur, S. ([2]; 31 g ai/ha, Preemergence): 90
- Plant response rating, Sandbur, S. ([2]; 62 g ai/ha, Preemergence): 100
- Plant response rating, Sandbur, S. ([2]; Postemergence, 8 g ai/ha): 65
- Plant response rating, Sandbur, S. ([2]; Postemergence, 16 g ai/ha): 75
- Plant response rating, Sandbur, S. ([2]; Postemergence, 31 g ai/ha): 80
- Plant response rating, Sandbur, S. ([2]; Postemergence, 62 g ai/ha): 90
- Plant response rating, Dallisgrass ([3]; 8 g ai/ha, Preemergence): 25
- Plant response rating, Dallisgrass ([3]; 16 g ai/ha, Preemergence): 50
- Plant response rating, Dallisgrass ([3]; 31 g ai/ha, Preemergence): 80
- Plant response rating, Dallisgrass ([3]; 62 g ai/ha, Preemergence): 100
- Plant response rating, Dallisgrass ([3]; Postemergence, 8 g ai/ha): 35
- Plant response rating, Dallisgrass ([3]; Postemergence, 16 g ai/ha): 35
- Plant response rating, Dallisgrass ([3]; Postemergence, 31 g ai/ha): 65
- Plant response rating, Dallisgrass ([3]; Postemergence, 62 g ai/ha): 65
- Plant response rating, Barnyardgrass [4, 13]: 65
- Plant response rating, Barnyardgrass [4, 14]: 80
- Plant response rating, Barnyardgrass [4, 15]: 100
- Plant response rating, Barnyardgrass ([4]; 62 g ai/ha, Preemergence, scale 0 to 100): 100
- Plant response rating, Barnyardgrass [4, 16]: 95
- Plant response rating, Barnyardgrass [4, 17]: 100
- Plant response rating, Barnyardgrass [4, 18]: 100
- Plant response rating, Barnyardgrass ([4]; Postemergence, 62 g ai/ha, scale 0 to 100): 100
- Plant response rating, Mustard, Black ([5]; 8 g ai/ha, Preemergence): 0
- Plant response rating, Mustard, Black ([5]; 16 g ai/ha, Preemergence): 0
- Plant response rating, Mustard, Black ([5]; 31 g ai/ha, Preemergence): 0
- Plant response rating, Mustard, Black ([5]; 62 g ai/ha, Preemergence): 0
- Plant response rating, Mustard, Black ([5]; Postemergence, 8 g ai/ha): 0
- Plant response rating, Mustard, Black ([5]; Postemergence, 16 g ai/ha): 0
- Plant response rating, Mustard, Black ([5]; Postemergence, 31 g ai/ha): 0
- Plant response rating, Mustard, Black ([5]; Postemergence, 62 g ai/ha): 0
- Plant response rating, Groundsel ([6]; Postemergence, 8 g ai/ha): 0
- Plant response rating, Groundsel ([6]; Postemergence, 16 g ai/ha): 0
- Plant response rating, Groundsel ([6]; Postemergence, 31 g ai/ha): 0
- Plant response rating, Groundsel ([6]; Postemergence, 62 g ai/ha): 0
- Plant response rating, Guineagrass ([7]; 16 g ai/ha, Preemergence): 100
- Plant response rating, Guineagrass ([7]; 31 g ai/ha, Preemergence): 100
- Plant response rating, Guineagrass ([7]; 62 g ai/ha, Preemergence): 100
- Plant response rating, Guineagrass ([7]; Postemergence, 8 g ai/ha): 80
- Plant response rating, Guineagrass ([7]; Postemergence, 16 g ai/ha): 80
- Plant response rating, Guineagrass ([7]; Postemergence, 31 g ai/ha): 90
- Plant response rating, Guineagrass ([7]; Postemergence, 62 g ai/ha): 95
- Plant response rating, Purslane ([8]; 16 g ai/ha, Preemergence): 0
- Plant response rating, Purslane ([8]; 31 g ai/ha, Preemergence): 0
- Plant response rating, Purslane ([8]; 62 g ai/ha, Preemergence): 0
- Plant response rating, Purslane ([8]; Postemergence, 8 g ai/ha): 0
- Plant response rating, Purslane ([8]; Postemergence, 16 g ai/ha): 0
- Plant response rating, Purslane ([8]; Postemergence, 31 g ai/ha): 0
- Plant response rating, Purslane ([8]; Postemergence, 62 g ai/ha): 0
